The values below are quoted from earlier work in patent US20230144779A1, “FORMULATIONS AND METHOD FOR TREATMENT OF INFLAMMATORY DISEASES” (VYOME THERAPEUTICS INC., priority 2019, published 2023).

The structures appear in SMILES notation.

Regarding `COc1c(C)c2c(c(O)c1C/C=C(\C)CCC(=O)O)C(=O)OC2` [Mycophenolic acid (MPA), Mycophenolic acid], the solubility result was “Practical insoluble, 63 mcg/ml. MPA as such is not available in the market, it is available as salt form Hydrophilic nature as compared to its ester prodrug”.
